This is an account of results in article PMC6037852, “Design of Diarylheptanoid Derivatives as Dual Inhibitors Against Class IIa Histone Deacetylase and β-amyloid Aggregation” (Frontiers in Pharmacology, 2018).

SMILES strings stand for the structures. Some results are limits rather than exact numbers.

Test [1] concerns the target T1, Aβ1-42 (Homo sapiens, UniProt P05067).
T1 construct: Aβ1-42 peptides were purchased from Kelowna International Scientific Inc; purchased Kelowna International Scientific Inc
Kind of test: Inhibition of Aβ1-42 self-aggregation, thioflavin-T (ThT) fluorescence assay. The class given is biochemical. Particulars: 24 h; for IC50: read-out: Beta-Amyloid Aggregation IC50; for inhibition at 10 µM: single concentration of 10 μM, read-out: Beta-Amyloid Aggregation Inhibition (%). As to the method: Inhibition of Aβ1-42 self-aggregation was measured by thioflavin-T (ThT) fluorescence assay ([Hudson et al., 2009]). Aβ1-42 peptides were purchased from Kelowna International Scientific Inc. To avoid Aβ1-42 self-aggregation before the start of the experiment, Aβ1-42 peptides were dissolved in hexafluoroisopropanol (HFIP) to a concentration of 1 mM. The clear solution containing the dissolved peptide was then aliquoted in micro centrifuge tube. The solution was evaporated under vacuum to remove HFIP to give monomeric Aβ1-42. The monomeric Aβ1-42 was dissolved in NaOH(aq) (60 mM) to give a stock solution (1 mM). The Aβ1-42 stock solution was diluted with 50 mM phosphate buffer (containing 0.15 M NaCl, pH 7.4) before use. Fresh ThT stock solution was prepared by dissolving ThT (Sigma, T3516) in phosphate buffer and filtrated through […] Nylon syringe filter. The ThT stock solution and 400 mM ethylenediaminetetraacetic acid (EDTA) were diluted into the phosphate buffer to generate the working solution as background. A mixture of working solution (ThT final concentration: 10 μM), Aβ1-42 stock solution (Aβ1-42 final concentration: 10 μM) and the tested compounds were incubated on BioShake iQ ThermoMixer (37°C, 700 rpm) for 24 h. Fluorescence was measured by Victor 2X microplate spectrophotometer (excitation λ = 440 nm, emission λ = 486 nm), and adapted for 96-well microtiter plates. The fluorescence intensities were recorded and the percent inhibition due to the presence of the inhibitors were calculated by the following formula: (1 - IFi/IFc) × 100% where IFi and IFc were the fluorescence intensities obtained for Aβ1-42 in the presence and in the absence of inhibitors after subtracting the background, respectively. The IC50 values were calculated by the linear regression model of the data. All experiments were performed in triplicate.

Test [2] concerns the target HDAC9 (Homo sapiens, UniProt Q9UKV0). Put plainly: HDAC fluorometric activity assay, HDAC9.
Test [3] has as its target HDAC5 (Homo sapiens, UniProt Q9UQL6). Put plainly: HDAC fluorometric activity assay, HDAC5. Particulars: IC50 Class IIa HDAC5, fluorogenic HDAC class IIa substrate 10 μM.
The target of test [4] is T2, HDAC4 (Homo sapiens, UniProt P56524).
T2 construct: Genes encoding HDAC4 (residues 648–1057) flanked with NdeI and EcoRI sites; made in house; host or cells: E. coli BL21(DE3)
T2 sequence (P56524 648-1057): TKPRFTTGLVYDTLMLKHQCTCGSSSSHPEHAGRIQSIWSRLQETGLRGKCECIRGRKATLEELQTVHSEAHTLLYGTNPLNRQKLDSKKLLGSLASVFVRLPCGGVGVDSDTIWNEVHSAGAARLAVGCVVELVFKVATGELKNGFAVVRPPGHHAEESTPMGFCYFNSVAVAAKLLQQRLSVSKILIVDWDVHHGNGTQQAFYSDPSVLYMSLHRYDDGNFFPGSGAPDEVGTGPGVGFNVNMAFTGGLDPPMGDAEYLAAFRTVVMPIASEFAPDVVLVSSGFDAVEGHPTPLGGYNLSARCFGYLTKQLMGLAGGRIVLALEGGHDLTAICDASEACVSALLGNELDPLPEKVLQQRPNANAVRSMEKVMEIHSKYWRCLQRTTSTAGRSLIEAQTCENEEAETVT
Kind of test: HDAC fluorometric activity assay, HDAC4. The class given is biochemical. Particulars: Boc-Lys(TFA)-AMC 10 μM; read-out: IC50 Class IIa HDAC4. As to the method: Proteins were expressed in BL21(DE3) cells by overnight induction with IPTG (1 mM) at 20–25°C and purified from cleared cell lysates by sequential chromatography on Ni-Sepharose 6 fast flow, Mono Q 5/50 GL, and Superdex 75 10/300 GL columns (GE Healthcare). Protein concentrations were quantified with Bradford Reagent (Bio-Rad).
Enzyme, inhibitors and substrate were diluted with HDAC buffer (15 mM Tris-HCl pH 8.1, 0.25 mM EDTA, 250 mM NaCl, 10% v:v glycerol). Briefly, 10 μL diluted HDAC, i.e., HeLa nuclear extract (Enzo), HDAC6 (BPS), HDAC4, HDAC5 (BPS), HDAC7 (BPS) and HDAC9 (BPS), as well as 50 μL of testing compounds at different concentrations were added to each well of a 96-well microtiter plate and pre-incubated at 30°C for 5 min. […] The fluorescence in wells without test compounds (0.1% DMSO, negative control) was set as 100% enzymatic activity and the fluorescence in wells with enzyme eliminated was set as 0% enzymatic activity. The fluorescence ratio of test compounds to negative control was defined as percentage of remaining enzyme activity. The IC50 values were calculated by linear regression of the data. All experiments were performed in triplicate.

Test [5] addresses T3, HDAC7 (Homo sapiens, UniProt Q8WUI4).
T3 sequence (Q8WUI4 1-952): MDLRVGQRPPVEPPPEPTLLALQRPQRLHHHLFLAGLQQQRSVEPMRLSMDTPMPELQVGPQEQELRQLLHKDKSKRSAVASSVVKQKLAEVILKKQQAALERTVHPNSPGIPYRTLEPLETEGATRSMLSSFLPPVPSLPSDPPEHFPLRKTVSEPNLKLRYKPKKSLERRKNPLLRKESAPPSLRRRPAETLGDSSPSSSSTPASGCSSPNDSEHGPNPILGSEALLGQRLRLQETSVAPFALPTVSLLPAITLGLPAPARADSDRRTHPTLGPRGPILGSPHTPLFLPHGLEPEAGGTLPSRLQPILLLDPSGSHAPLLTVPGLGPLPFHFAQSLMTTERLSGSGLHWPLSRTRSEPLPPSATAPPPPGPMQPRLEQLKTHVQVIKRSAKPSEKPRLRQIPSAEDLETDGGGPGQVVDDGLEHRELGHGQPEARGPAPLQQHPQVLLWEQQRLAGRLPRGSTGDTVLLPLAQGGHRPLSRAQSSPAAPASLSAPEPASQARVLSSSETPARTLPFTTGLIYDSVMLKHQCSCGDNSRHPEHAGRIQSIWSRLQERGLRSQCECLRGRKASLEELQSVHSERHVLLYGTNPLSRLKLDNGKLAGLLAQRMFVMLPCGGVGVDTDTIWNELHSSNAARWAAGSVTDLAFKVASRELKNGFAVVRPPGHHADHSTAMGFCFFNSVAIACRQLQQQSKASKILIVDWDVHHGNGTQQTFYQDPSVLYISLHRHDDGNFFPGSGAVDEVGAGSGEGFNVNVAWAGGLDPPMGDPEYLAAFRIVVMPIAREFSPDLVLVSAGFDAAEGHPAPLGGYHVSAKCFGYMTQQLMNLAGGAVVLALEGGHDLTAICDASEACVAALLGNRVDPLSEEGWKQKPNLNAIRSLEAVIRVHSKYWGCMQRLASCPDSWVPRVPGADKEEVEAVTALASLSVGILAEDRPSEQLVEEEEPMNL
Put plainly: HDAC fluorometric activity assay, HDAC7. As to conditions: IC50 Class IIa HDAC7, fluorogenic HDAC class IIa substrate 10 μM.

Test [6] deals with HeLa nuclear HDACs. Put plainly: HDAC fluorometric activity assay, HeLa nuclear extract. As to conditions: read-out: IC50 HeLa Nuclear HDACs; Boc-Lys(Ac)-AMC 10 μM.

HDAC9, sequence (Q9UKV0 whole entry): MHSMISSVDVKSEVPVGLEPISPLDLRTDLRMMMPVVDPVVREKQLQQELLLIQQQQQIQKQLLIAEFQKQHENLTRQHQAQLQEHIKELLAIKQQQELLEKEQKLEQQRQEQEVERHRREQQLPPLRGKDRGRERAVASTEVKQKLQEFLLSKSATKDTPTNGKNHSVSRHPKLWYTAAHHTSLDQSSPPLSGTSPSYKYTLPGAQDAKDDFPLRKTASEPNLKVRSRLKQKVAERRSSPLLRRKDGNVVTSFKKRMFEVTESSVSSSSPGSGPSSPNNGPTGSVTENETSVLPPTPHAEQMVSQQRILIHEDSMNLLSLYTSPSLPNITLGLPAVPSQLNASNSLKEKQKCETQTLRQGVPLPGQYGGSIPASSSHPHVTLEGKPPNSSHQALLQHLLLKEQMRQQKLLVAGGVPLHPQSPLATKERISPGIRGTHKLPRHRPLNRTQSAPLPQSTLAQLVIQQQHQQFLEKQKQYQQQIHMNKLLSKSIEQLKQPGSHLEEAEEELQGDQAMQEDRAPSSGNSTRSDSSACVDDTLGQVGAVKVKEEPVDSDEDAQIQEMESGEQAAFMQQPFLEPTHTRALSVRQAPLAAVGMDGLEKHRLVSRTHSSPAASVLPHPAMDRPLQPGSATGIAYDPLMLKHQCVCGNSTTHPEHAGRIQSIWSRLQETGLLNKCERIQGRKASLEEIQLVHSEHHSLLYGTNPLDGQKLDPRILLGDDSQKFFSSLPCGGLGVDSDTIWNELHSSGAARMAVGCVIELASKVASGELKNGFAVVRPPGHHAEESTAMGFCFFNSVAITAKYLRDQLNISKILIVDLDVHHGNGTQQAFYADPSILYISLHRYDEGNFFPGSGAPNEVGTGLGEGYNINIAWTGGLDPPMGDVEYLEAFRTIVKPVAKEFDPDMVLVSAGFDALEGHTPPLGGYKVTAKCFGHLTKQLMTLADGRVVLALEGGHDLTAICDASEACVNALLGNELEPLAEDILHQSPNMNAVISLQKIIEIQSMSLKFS
T1 sequence (P05067 672-713 limits assumed): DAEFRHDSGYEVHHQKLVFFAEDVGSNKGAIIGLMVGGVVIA
HDAC5, sequence (Q9UQL6 whole entry): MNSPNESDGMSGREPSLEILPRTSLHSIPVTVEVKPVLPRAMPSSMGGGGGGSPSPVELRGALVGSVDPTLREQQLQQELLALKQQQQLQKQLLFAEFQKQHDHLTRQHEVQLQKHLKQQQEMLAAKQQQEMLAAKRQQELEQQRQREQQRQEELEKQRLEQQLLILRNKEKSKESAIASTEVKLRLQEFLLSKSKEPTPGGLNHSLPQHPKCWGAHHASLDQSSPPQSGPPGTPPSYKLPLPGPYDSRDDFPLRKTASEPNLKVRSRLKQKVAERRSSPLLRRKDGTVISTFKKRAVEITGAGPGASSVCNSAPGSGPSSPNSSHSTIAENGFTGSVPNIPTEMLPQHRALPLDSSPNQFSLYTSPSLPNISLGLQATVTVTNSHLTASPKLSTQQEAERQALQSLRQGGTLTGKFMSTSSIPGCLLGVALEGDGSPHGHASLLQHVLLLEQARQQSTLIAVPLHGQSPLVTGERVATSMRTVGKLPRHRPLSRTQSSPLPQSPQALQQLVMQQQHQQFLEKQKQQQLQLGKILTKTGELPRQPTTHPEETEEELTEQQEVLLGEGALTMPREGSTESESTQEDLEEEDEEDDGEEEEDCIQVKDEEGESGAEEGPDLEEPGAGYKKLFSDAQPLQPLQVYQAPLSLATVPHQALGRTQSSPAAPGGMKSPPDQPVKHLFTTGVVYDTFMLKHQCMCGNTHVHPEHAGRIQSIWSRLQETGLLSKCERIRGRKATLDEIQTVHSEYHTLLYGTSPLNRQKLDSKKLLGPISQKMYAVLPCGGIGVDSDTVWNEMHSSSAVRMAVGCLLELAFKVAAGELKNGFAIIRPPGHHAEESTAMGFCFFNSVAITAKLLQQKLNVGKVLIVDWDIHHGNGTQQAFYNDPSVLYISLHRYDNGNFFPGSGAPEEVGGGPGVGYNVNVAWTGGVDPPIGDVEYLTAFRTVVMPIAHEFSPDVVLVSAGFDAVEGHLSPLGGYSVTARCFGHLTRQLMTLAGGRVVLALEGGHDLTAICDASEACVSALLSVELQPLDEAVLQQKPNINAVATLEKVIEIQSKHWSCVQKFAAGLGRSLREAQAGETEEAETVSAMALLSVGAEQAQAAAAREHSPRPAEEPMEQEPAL

The term IC50 denotes the point on the concentration scale where inhibition reaches its midpoint. What is called inhibition is the percentage by which the read-out fell short of the control. `O=C(CCc1ccc(O)c(O)c1)c1ccccc1` [Compound 8a]: the IC50 in test [1] was 8.6 ± 1.1 µM; in test [2] it was 14.2 ± 1.6 µM; in test [3], 6.2 ± 0.4 µM; in test [4] it was above 40 µM; in test [5], 12 ± 1 µM; in test [6], above 40 µM. Moreover, the inhibition at 10 µM in test [1] came to 66.4 ± 1%.

Regarding `O=C(/C=C/c1ccccc1)CCCCc1ccccc1` [Compound 4a], the IC50 in test [1] was above 10 µM; in test [2], above 40 µM; in test [3] it was above 40 µM; in test [4] it was above 40 µM; in test [5], above 40 µM; in test [6], above 40 µM. Further, in test [1], the inhibition at 10 µM came to 11.9 ± 1%.

On to `O=C(/C=C/c1ccc(O)cc1)CCCCc1ccccc1` [Compound 4b], for which the IC50 in test [1] is above 10 µM; in test [2] it was above 40 µM; in test [3] it was above 40 µM; in test [4] it was above 40 µM; in test [5], above 40 µM; in test [6], above 40 µM. Moreover, the inhibition at 10 µM in test [1] turned out to be 28.7 ± 6.3%.

For `O=C(CCCCc1ccccc1)CCc1ccc(O)cc1` [Compound 5b], the IC50 in test [1] is above 10 µM; in test [2], above 40 µM; in test [3] it was above 40 µM; in test [4] it was above 40 µM; in test [5], above 40 µM; in test [6] it was above 40 µM. Further, the inhibition at 10 µM in test [1] stood at 30.4 ± 1%.

Regarding `O=C(CCCCc1ccccc1)CCc1ccc(O)c(F)c1` [Compound 5f], the IC50 is above 10 µM in test [1]; above 40 µM in test [2]; above 40 µM in test [3]; above 40 µM in test [4]; above 40 µM in test [5]; above 40 µM in test [6]. In addition, the inhibition at 10 µM in test [1] was 22.1 ± 11.1%.

Take `O=C(/C=C/c1cccc(O)c1)CCCCc1ccccc1` [Compound 4d]: the IC50 in test [1] is above 10 µM; in test [2], above 40 µM; in test [3] it was above 40 µM; in test [4], above 40 µM; in test [5], above 40 µM; in test [6] it was above 40 µM. Besides, the inhibition at 10 µM in test [1] was found to be 0.7 ± 1.5%.

As to `O=C(/C=C/c1ccc(O)c(O)c1)CCCCc1ccccc1` [Compound 4c], the IC50 was 6.1 ± 1.3 µM in test [1]; 17.6 ± 0.3 µM in test [2]; 15.9 ± 1.5 µM in test [3]; 30.5 ± 0.7 µM in test [4]; 8.4 ± 0.3 µM in test [5]; above 40 µM in test [6]. Besides, the inhibition at 10 µM in test [1] came out at 76.2 ± 2.7%.

Consider `O=C(CCCc1ccccc1)CCc1ccc(O)c(O)c1` [Compound 8d], for which the IC50 was 8.5 ± 0.2 µM in test [1]; 17.3 ± 3.2 µM in test [2]; 7.5 ± 0.3 µM in test [3]; above 40 µM in test [4]; 7.4 ± 1.6 µM in test [5]; above 40 µM in test [6]. Moreover, in test [1], the inhibition at 10 µM was found to be 59 ± 5.8%.

For `O=C(CCCCc1ccccc1)CCc1ccc(O)c(Br)c1` [Compound 5h], the IC50 was above 10 µM in test [1]; above 40 µM in test [2]; above 40 µM in test [3]; above 40 µM in test [4]; above 40 µM in test [5]; above 40 µM in test [6]. For the same molecule, the inhibition at 10 µM in test [1] came to 1 ± 3%.

`O=C(/C=C/c1ccc(O)c(O)c1)c1ccccc1` [Compound 7a]: the IC50 in test [1] is 2.3 ± 0.2 µM; in test [2], 18.4 ± 0.6 µM; in test [3], 13.1 ± 4.4 µM; in test [4] it was 31.1 ± 0.8 µM; in test [5], 9.6 ± 0.2 µM; in test [6], above 40 µM. Also, the inhibition at 10 µM in test [1] turned out to be 83.1 ± 1.9%.

With `O=C(/C=C/c1ccc(O)c(F)c1)CCCCc1ccccc1` [Compound 4f], the IC50 in test [1] was above 10 µM; in test [2], above 40 µM; in test [3], above 40 µM; in test [4] it was above 40 µM; in test [5] it was above 40 µM; in test [6] it was above 40 µM. Also, in test [1], the inhibition at 10 µM is 34.9 ± 9.2%.

Consider `O=C(CCCCc1ccccc1)CCc1ccccc1` [Compound 5a], for which the IC50 in test [1] is above 10 µM; in test [2] it was above 40 µM; in test [3], above 40 µM; in test [4], above 40 µM; in test [5], above 40 µM; in test [6], above 40 µM. Further, in test [1], the inhibition at 10 µM was 14 ± 3%.

`O=C(CCc1ccc(O)c(O)c1)Cc1ccccc1` [Compound 8b]: the IC50 in test [1] is 8.1 ± 1.2 µM; in test [2] it was 37.1 ± 0.9 µM; in test [3] it was 9 ± 0.2 µM; in test [4], above 40 µM; in test [5] it was 13.7 ± 0.7 µM; in test [6], above 40 µM. Moreover, the inhibition at 10 µM in test [1] turned out to be 68.6 ± 4.1%.

As for `O=C(/C=C/c1ccc(O)c(Cl)c1)CCCCc1ccccc1` [Compound 4g], the IC50 in test [1] is above 10 µM; in test [2] it was above 40 µM; in test [3], above 40 µM; in test [4] it was above 40 µM; in test [5] it was above 40 µM; in test [6], above 40 µM. In test [1], the inhibition at 10 µM amounted to 27.8 ± 7.1%.

As to `O=C(/C=C/c1ccc(O)c(Br)c1)CCCCc1ccccc1` [Compound 4h], the IC50 was above 10 µM in test [1]; above 40 µM in test [2]; above 40 µM in test [3]; above 40 µM in test [4]; above 40 µM in test [5]; above 40 µM in test [6]. Besides, the inhibition at 10 µM in test [1] came out at 28.1 ± 2.1%.

For the molecule `O=C(/C=C/c1ccc(O)c(O)c1)CCc1ccccc1` [Compound 7c], the IC50 in test [1] was 3.4 ± 0.4 µM; in test [2] it was 36.8 ± 0.7 µM; in test [3] it was 15.6 ± 0.4 µM; in test [4], 38.3 µM; in test [5] it was 13.6 ± 1.1 µM; in test [6] it was above 40 µM. Besides, the inhibition at 10 µM in test [1] was 83.7 ± 0.8%.
